Consider 16 compounds from patent US8835458B2 (Hanmi Science Co., Ltd, priority 2010, dated 2014).

The nature of data set [1]: Toxicity to normal cells (SRB). The data set is classed as cell-based, human. The settings on record: human, Hs27 fibroblasts (normal cell line). The method, boiled down:
(§1)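 Cells seeded at 3,000˜5,000 cells/100 μL, grown 24 h at 37° C (MDA-MB-231 under atmospheric conditions), then exposed to 10 μM˜0.1 nM compound. MDA-MB-231 cultured 120 h, read by MTS at 490 nm; fibroblasts cultured 72 h, TCA-fixed, SRB-stained, read at 540 nm. GI50 from growth relative to untreated and medium-only cells.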

Data set [2] in a line: Toxicity to normal cells (SRB). The data set is classed as cell-based, mouse. The settings on record: mouse, Balb/c3t3 fibroblasts (normal cell line), read-out: BalB/C (GI50). On the procedure: MDA-MB-231 breast cancer cell lines (ATCC #HTB-26) and BxPC-3 pancreas cancer cell lines (ATCC #CRL 1687), which have been reported to express XIAP, were obtained from ATCC (American type culture collection; Rockville, Md.). MDA-MB-231 cell lines were incubated in L-15 medium supplemented with 10% FBS and 1% penicillin/streptomycin (Gibco BRL) at a T-75 cm^2 growth flask. In addition, BxPC-3 cell lines were incubated in RPMI medium supplemented with 10% FBS and 1% penicillin/streptomycin. For experiments of toxicity to normal cells, fibroblasts Hs27 (ATCC #CRL 1634) and Balb/c3t3 (ATCC #CCL 163) were used. The various cell lines were transferred into 96-well plates at a density of 3,000˜5,000 cells/100 μL, and cultured for 24 hours under conditions of 37° C., 5% CO2, 95% air, and 100% relative humidity (MDA-MB-231 cells were cultured under atmospheric conditions). The cells were treated with 10 μM˜0.1 nM of test compounds, and MDA-MB-231, BxPC-3, and normal cell lines were cultured for 120, 96, and 72 hours, respectively.
Cell viabilities of MDA-MB-231 cell lines were measured at an absorbance of 490 nm using CellTiter 96™ AQueous One Solution Cell proliferation Assay (MTS, Promega), and cell viabilities of BxPC-3 and normal cell lines were measured by fixing cells with 10% TCA (trichloroacetic acid), staining with SRB (sulforhodamine B), and measuring at 540 nm. From the values, GI50 values in which test compounds reduce the growth of cancer cells by 50% were calculated. The growth rates of cancer cells were calculated from following Equation 1 or 2. [(Ti−Tz)/(C−Tz)]×100 (for Ti>=Tz) [Equation 1] [(Ti−Tz)/Tz]×100 (for Ti<Tz) [Equation 2] In Equations 1 and 2, Tz refers to a density of untreated cells, which is an absorbance in 0% cell growth groups. C refers to a density of cells cultured by adding only medium, and Ti refers to a density of cells treated with test compounds.
GI50 value is the concentration of a test compound when the value of Equation 1 is 50, which indicates the concentration of test compound required to inhibit the cancer cells by 50%. On each measurement, test compounds were compared with a control.
The activity value of each compound (GI50 value) was shown in Table 5, and an IAP antagonist was used as a control.
In the activity measurement on MDA-MB-231 breast cancer cell lines, the values were represented as “***” for 100 nM or less, “**” for over 100 nM to below 1,000 nM, and “*” for 1,000 nM or more. In the measurement on normal cell lines, Balb/C and Hs27, the values were represented as “+++” for 10,000 nM or more, “++” for over 5,000 nM to below 10,000 nM, and “+” for 5,000 nM or less.

In data set [3] the test system is MDA-MB-231 breast cancer cell lines. Kind of data set: Evaluation of inhibition on cell growth (MTS). The data set is classed as cell-based. Particulars: Homo sapiens, MDA-MB-231, 120 hours. The method, boiled down:
as §1

SMILES strings stand for the structures. Counter-ions that a name gives are not always drawn. Like-named read-outs stand apart in the source and are kept apart here. Some results are limits rather than exact numbers.

With `CN[C@@H](C)C(=O)N[C@H](C(=O)N1CCC[C@H]1C(=O)Nc1cc2c(Nc3ccccc3Cl)ncnc2cc1OC)C(C)(C)C` [Example 21, (S)—N-(4-(2-chlorophenylamino)-7-methoxyquinazolin-6-yl)-1-((S)-3,3-dimethyl-2-((S)-2-(methylamino)propanamido)butanoyl)pyrrolidine-2-carboxamide hydrochloride], the GI50 at 72 h in data set [1] and in data set [2] was more than 10 µM throughout. In addition, the GI50 in data set [3] is not above 100 nM.
With `CN[C@@H](C)C(=O)N[C@H](C(=O)N1CCC[C@H]1C(=O)Nc1cc2c(Nc3ccccc3Br)ncnc2cc1OC)C(C)(C)C` [Example 22, (S)—N-(4-(2-bromophenylamino)-7-methoxyquinazolin-6-yl)-1-((S)-3,3-dimethyl-2-((S)-2-(methylamino)propanamido)butanoyl)pyrrolidine-2-carboxamide hydrochloride], the GI50 at 72 h in data set [1] and in data set [2] was more than 10 µM in each case. The same compound yielded a GI50 in data set [3] not above 100 nM.
Consider `CNc1ncnc2cc(OC)c(NC(=O)[C@@H]3CCCN3C(=O)[C@@H](NC(=O)[C@H](C)NC)C(C)(C)C)cc12` [Example 23, (S)-1-((S)-3,3-dimethyl-2-((S)-2-(methylamino)propanamido)butanoyl)-N-(7-methoxy-4-(methylamino)quinazolin-6-yl)pyrrolidine-2-carboxamide], for which the GI50 at 72 h in data set [1] and in data set [2] was more than 10 µM each time. Further, the GI50 in data set [3] was not above 100 nM.
In the case of `CN[C@@H](C)C(=O)N[C@H](C(=O)N1CCC[C@H]1C(=O)Nc1cc2c(N3CCCCC3)ncnc2cc1OC)C(C)(C)C` [Example 24, (S)-1-((S)-3,3-dimethyl-2-((S)-2-(methylamino)propanamido)butanoyl)-N-(7-methoxy-4-(piperidin-1-yl)quinazolin-6-yl)pyrrolidine-2-carboxamide hydrochloride], the GI50 at 72 h in data set [1] and in data set [2] was more than 10 µM throughout. Besides, in data set [3], the GI50 was not above 100 nM.
For `CN[C@@H](C)C(=O)N[C@H](C(=O)N1CCCC[C@H]1C(=O)Nc1cc2c(Nc3ccc(F)c(Cl)c3F)ncnc2cc1OC)C(C)(C)C` [Example 25], the GI50 at 72 h in data set [1] and in data set [2] was more than 10 µM each time. In addition, the GI50 in data set [3] lay within 100 to 1000 nM.
Regarding `CN[C@@H](C)C(=O)N[C@H](C(=O)N1CCC[C@H]1C(=O)Nc1cc2c(Nc3ccccc3C)ncnc2cc1OC)C(C)(C)C` [Example 27, (S)—N-(4-(o-toluidino)-7-methoxyquinazolin-6-yl)-1-((S)-3,3-dimethyl-2-((S)-2-(methylamino)propanamido)butanoyl)pyrrolidine-2-carboxamide hydrochloride], the GI50 at 72 h in data set [1] and in data set [2] was more than 10 µM in each case. Besides, the GI50 in data set [3] was not above 100 nM.
Regarding `CN[C@@H](C)C(=O)N[C@H](C(=O)N1CCC[C@H]1C(=O)Nc1cc2c(Nc3ccc(F)cc3F)ncnc2cc1OC)C(C)(C)C` [Example 28, (S)—N-(4-(2,4-difluorophenylamino)-7-methoxyquinazolin-6-yl)-1-((S)-3,3-dimethyl-2-((S)-2-(methylamino)propanamido)butanoyl)pyrrolidine-2-carboxamide hydrochloride], the GI50 at 72 h in data set [1] and in data set [2] was more than 10 µM in each case. Also, the GI50 in data set [3] was not above 100 nM.
As for `CN[C@@H](C)C(=O)N[C@H](C(=O)N1CCC[C@H]1C(=O)Nc1cc2c(Nc3ccc(Cl)cc3F)ncnc2cc1OC)C(C)(C)C` [Example 29, (S)—N-(4-(4-chloro-2-fluorophenylamino)-7-methoxyquinazolin-6-yl)-1-((S)-3,3-dimethyl-2-((S)-2-(methylamino)propanamido)butanoyl)pyrrolidine-2-carboxamide hydrochloride], the GI50 at 72 h in data set [1] and in data set [2] was more than 10 µM each time. The GI50 in data set [3] was not above 100 nM.
For the compound `CN[C@@H](C)C(=O)N[C@H](C(=O)N1CCC[C@H]1C(=O)Nc1cc2c(Nc3ccccc3OC)ncnc2cc1OC)C(C)(C)C` [Example 30, (S)—N-(4-(2-methoxyphenylamino)-7-methoxyquinazolin-6-yl)-1-((S)-3,3-dimethyl-2-((S)-2-(methylamino)propanamido)butanoyl)pyrrolidine-2-carboxamide hydrochloride], the GI50 at 72 h in data set [1] and in data set [2] was more than 10 µM each time. The compound further came in with a GI50 in data set [3] not above 100 nM.
For `CN[C@@H](C)C(=O)N[C@H](C(=O)N1CCC[C@H]1C(=O)Nc1cc2c(N(C)c3ccccc3)ncnc2cc1OC)C(C)(C)C` [Example 31, (S)-1-((S)-3,3-dimethyl-2-((S)-2-(methylamino)propanamido)butanoyl)-N-(7-methoxy-4-(methyl(phenyl)amino)quinazolin-6-yl)pyrrolidine-2-carboxamide hydrochloride], the GI50 at 72 h in data set [1] and in data set [2] was more than 10 µM in each case. Besides, the GI50 in data set [3] was not above 100 nM.
As to `CN[C@@H](C)C(=O)N[C@H](C(=O)N1CCC[C@H]1C(=O)Nc1cc2c(Nc3ccc4ccccc4c3)ncnc2cc1OC)C(C)(C)C` [Example 32, (S)-1-((S)-3,3-dimethyl-2-((S)-2-(methylamino)propanamido)butanoyl)-N-(7-methoxy-4-(naphthalen-2-ylamino)quinazolin-6-yl)pyrrolidine-2-carboxamide], the GI50 at 72 h in data set [1] and in data set [2] was more than 10 µM each time. Moreover, the GI50 in data set [3] is not above 100 nM.
In the case of `CN[C@@H](C)C(=O)N[C@H](C(=O)N1CCC[C@H]1C(=O)Nc1cc2c(Nc3ccccn3)ncnc2cc1OC)C(C)(C)C` [Example 33, (S)-1-((S)-3,3-dimethyl-2-((S)-2-(methylamino)propanamido)butanoyl)-N-(7-methoxy-4-(pyridin-2-ylamino)quinazolin-6-yl)pyrrolidine-2-carboxamide], the GI50 at 72 h in data set [1] and in data set [2] was more than 10 µM in each case. The GI50 in data set [3] was not above 100 nM.
With `CN[C@@H](C)C(=O)N[C@H](C(=O)N1CCC[C@H]1C(=O)Nc1cc2c(N[C@@H](C)c3ccccc3)ncnc2cc1OC)C(C)(C)C` [Example 34, (S)-1-((S)-3,3-dimethyl-2-((S)-2-(methylamino)propanamido)butanoyl)-N-(7-methoxy-4-((S)-1-phenylmethylamino)quinazolin-6-yl)pyrrolidine-2-carboxamide hydrochloride], the GI50 at 72 h in data set [1] and in data set [2] was more than 10 µM throughout. Moreover, the GI50 in data set [3] is not above 100 nM.
`CN[C@@H](C)C(=O)N[C@H](C(=O)N1CCC[C@H]1C(=O)Nc1cc2c(NCc3ccc(F)cc3F)ncnc2cc1OC)C(C)(C)C` [Example 35, (S)—N-(4-(2,4-difluorobenzylamino)-7-methoxyquinazolin-6-yl)-1-((S)-3,3-dimethyl-2-((S)-2-(methylamino)propanamido)butanoyl)pyrrolidine-2-carboxamide hydrochloride]: the GI50 at 72 h in data set [1] and in data set [2] was more than 10 µM in each case. This compound returned a GI50 in data set [3] not above 100 nM.
Take `CN[C@@H](C)C(=O)N[C@H](C(=O)N1CCC[C@H]1C(=O)Nc1cc2c(N)ncnc2cc1OC)C(C)(C)C` [Example 36, (S)—N-(4-amino-7-methoxyquinazolin-6-yl)-1-((S)-3,3-dimethyl-2-((S)-2-(methylamino)propanamido)butanoyl)pyrrolidine-2-carboxamide]: the GI50 at 72 h in data set [1] and in data set [2] was more than 10 µM each time. The compound also gave a GI50 in data set [3] of 100 to 1000 nM.
As to `CN[C@@H](C)C(=O)N[C@H](C(=O)N1CCC[C@H]1C(=O)Nc1cc2c(Nc3ccc(OCc4cccc(F)c4)c(Cl)c3)ncnc2cc1OC)C(C)(C)C` [Example 37, (S)—N-(4-(3-chloro-4-(3-fluorobenzyloxy)phenylamino)-7-methoxyquinazolin-6-yl)-1-((S)-3,3-dimethyl-2-((S)-2-(methylamino)propanamido)butanoyl)pyrrolidine-2-carboxamide hydrochloride], the GI50 at 72 h in data set [1] and in data set [2] was more than 10 µM throughout. This compound gave a GI50 in data set [3] not above 100 nM.
